Seven molecules from ChEMBL document CHEMBL1201862, “PubChem BioAssay data set” (2004) can be followed below.

Test in all cases: NCI tumour cell line growth inhibition, 48 h
Experiment [1] deals with UO-31.
The test system of experiment [2] is SNB-75.
Experiment [3] has as its system SF-539.
Experiment [4] deals with SK-MEL-2.
The test system of experiment [5] is A498.
Experiment [6] deals with MDA-MB-231.
Experiment [7] relates to T47D.
Experiment [8] concerns DU-145.
The test system of experiment [9] is MCF7.
Experiment [10] concerns SF-295.
Experiment [11] relates to U-251.
The subject of experiment [12] is COLO 205.
The subject of experiment [13] is A549.
Experiment [14] relates to UACC-257.
Experiment [15] concerns TK-10.
The test system of experiment [16] is MDA-MB-435.
For experiment [17], the system named is MOLT-4.
Experiment [18] relates to SNB-19.
In experiment [19] the test system is NCI-H226.
The subject of experiment [20] is HOP-92.

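Cells were grown in 96-well plates and exposed to each compound for 48 hours at five concentrations; endpoints were interpolated linearly between bracketing concentrations, or set to the highest concentration if not reached. Here, GI50 denotes the concentration required for 50% inhibition of growth.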 The source made the active and inactive calls. No stated cut-off is given here; in the data, active = GI50 up to about 1.1 µM and inactive = higher. A value given as a limit tells only on which side of the number the result lay.

Take `Cc1nc2c(O)c3c(c(O)c2nc1C)C1C=CC3CC1`: the GI50 in experiment [1] was 12 µM (inactive); in experiment [2], 32.2 µM (inactive); in [3], 14.6 µM (inactive); in experiment [4], 11.8 µM (inactive); in experiment [5], 42.9 µM (inactive); in experiment [6] it was 3.02 µM (inactive). Moreover, the GI50 was 2.79 µM (inactive) in [7]; > 75.3 µM (inactive) in experiment [8]; 9.75 µM (inactive) in [9]; 29.7 µM (inactive) in [10]; 9.44 µM (inactive) in [11]; 19.7 µM (inactive) in experiment [12]. The GI50 was 24.9 µM (inactive) in experiment [13]; 7.24 µM (inactive) in [14]; 20.6 µM (inactive) in experiment [15]; 3.04 µM (inactive) in experiment [16]; 1.06 µM (active) in experiment [17]; > 64.1 µM (inactive) in [18]. The GI50 in experiment [19] was 29.6 µM (inactive); in [20], 2.9 µM (inactive).
Turning to `COc1cc(S(=O)(=O)Nc2nc(-c3ccc(/N=C/c4cccs4)cc3)cs2)ccc1Cl`, the GI50 in [1] is 58.6 µM (inactive); in [2], 33.8 µM (inactive); in [3], 34 µM (inactive); in [4], 39.5 µM (inactive); in experiment [5], > 100 µM (inactive); in experiment [6], 95.1 µM (inactive). For the same molecule, the GI50 in experiment [7] is 84.3 µM (inactive); in experiment [8] it was > 100 µM (inactive); in experiment [9], 36.6 µM (inactive); in experiment [10], > 100 µM (inactive); in experiment [11], 81.1 µM (inactive); in experiment [12], > 100 µM (inactive). In addition, the GI50 is > 100 µM (inactive) in [13]; > 100 µM (inactive) in experiment [14]; > 100 µM (inactive) in experiment [15]; > 100 µM (inactive) in [16]; 27.5 µM (inactive) in experiment [17]; > 100 µM (inactive) in experiment [18]. The GI50 in experiment [19] was > 100 µM (inactive); in [20], 37.2 µM (inactive).
For `CCOP1(=O)CC(C)=C(Cl)C(O)C1` (stereo not given), the GI50 in experiment [1] is > 100 µM (inactive); in experiment [2], 40.3 µM (inactive); in [3], > 100 µM (inactive); in experiment [4], > 100 µM (inactive); in experiment [5], > 100 µM (inactive); in [6], > 100 µM (inactive). The GI50 in experiment [7], in experiment [8], in [9], in [10], in [11] and in experiment [12] was > 100 µM (inactive) throughout. Besides, the GI50 in experiment [13], in experiment [14], in experiment [15], in [16], in [17] and in experiment [18] was > 100 µM (inactive) each time. The GI50 in [19] and in experiment [20] was > 100 µM (inactive) each time.
In the case of `CCCC(=O)Nc1cc(/C=C/C(=O)N2CC(CCl)c3c2cc(OC(C)=O)c2[nH]cc(C)c32)n(C)c1` (stereo not given), the GI50 in experiment [1] is 6.84e-05 µM (active); in experiment [2] it was 5.77e-05 µM (active); in experiment [3], < 2.5e-05 µM (active); in experiment [4], 5.92e-05 µM (active); in experiment [5], 0.000116 µM (active); in experiment [6] it was 6.44e-05 µM (active). The GI50 was 6.3e-05 µM (active) in [7]; < 2.5e-05 µM (active) in experiment [8]; 2.94e-05 µM (active) in experiment [9]; 4.52e-05 µM (active) in [10]; < 2.5e-05 µM (active) in experiment [11]; 7.03e-05 µM (active) in experiment [12]. The GI50 in experiment [13] was 8.19e-05 µM (active); in experiment [14] it was 2.97e-05 µM (active); in [15] it was 0.000363 µM (active); in experiment [16], 4.95e-05 µM (active); in experiment [17] it was < 2.5e-05 µM (active); in [18], 0.00011 µM (active). Besides, the GI50 is 4.33e-05 µM (active) in experiment [19] and 4.28e-05 µM (active) in experiment [20].
`COc1ccc(CC2c3cc(Oc4cc(CC5c6cc(OC)c(OC)cc6CCN5C)ccc4O)c(OC)cc3CCN2C)cc1` (stereo not given): the GI50 in [1] is 5.25 µM (inactive); in experiment [2], 8.45 µM (inactive); in experiment [3], 8.63 µM (inactive); in [4], 8.65 µM (inactive); in experiment [5], 7.96 µM (inactive); in [6], 7.91 µM (inactive). For the same molecule, the GI50 is 6.43 µM (inactive) in experiment [7]; 1.3 µM (inactive) in experiment [8]; 5.81 µM (inactive) in experiment [9]; 8.2 µM (inactive) in [10]; 5.74 µM (inactive) in experiment [11]; 7.06 µM (inactive) in experiment [12]. Also, the GI50 in experiment [13] is 6.73 µM (inactive); in [14], 8.04 µM (inactive); in [15], 3.87 µM (inactive); in experiment [16], 4.14 µM (inactive); in experiment [17], 5.52 µM (inactive); in experiment [18] it was 6.1 µM (inactive). Also, the GI50 is 10.2 µM (inactive) in experiment [19] and 7.41 µM (inactive) in experiment [20].
Take `COc1ccc(NC/C=C/C(=C/COC(C)=O)OC(C)=O)cc1`: the GI50 in experiment [1] is 12.3 µM (inactive); in experiment [2], 7.23 µM (inactive); in experiment [3], 2 µM (inactive); in experiment [4], 2.28 µM (inactive); in experiment [5], 1.39 µM (inactive); in experiment [6], 1.78 µM (inactive). Besides, the GI50 is 2.41 µM (inactive) in [7]; 3.11 µM (inactive) in experiment [8]; 2.63 µM (inactive) in [9]; 2.12 µM (inactive) in experiment [10]; 2.44 µM (inactive) in experiment [11]; 1.88 µM (inactive) in experiment [12]. Besides, the GI50 was 15.3 µM (inactive) in experiment [13]; 2.24 µM (inactive) in experiment [14]; 1.87 µM (inactive) in experiment [15]; 1.73 µM (inactive) in experiment [16]; 4.75 µM (inactive) in experiment [17]; 3.27 µM (inactive) in [18]. The GI50 in [19] was 19.3 µM (inactive); in [20], 1.8 µM (inactive).
`Cc1ccc2c3ccc4c(c3n(C)c2c1)C(=O)C=CC4=O`: the GI50 in experiment [1] is > 10 µM (inactive); in experiment [2], > 10 µM (inactive); in experiment [3], > 5.98 µM (inactive); in experiment [4] it was 9.95 µM (inactive); in [5], > 10 µM (inactive); in [6] it was 3.97 µM (inactive). For the same molecule, the GI50 was 2.43 µM (inactive) in [7]; > 10 µM (inactive) in experiment [8]; 3.29 µM (inactive) in [9]; > 10 µM (inactive) in experiment [10]; > 10 µM (inactive) in experiment [11]; 2.5 µM (inactive) in experiment [12]. In addition, the GI50 in [13] is > 10 µM (inactive); in experiment [14], 6.67 µM (inactive); in [15] it was 4.82 µM (inactive); in experiment [16], 5.86 µM (inactive); in [17], 0.475 µM (active); in experiment [18], > 10 µM (inactive). Further, the GI50 was > 10 µM (inactive) in [19] and 3.1 µM (inactive) in [20].
